Source: US10213427B2 (Incyte Corporation, priority 2010, dated 2019)

target: FGFR3 enzyme (Millipore) (Homo sapiens (Human), UniProt P22607); assay: FGFR3 Enzymatic Assay; format: biochemical; conditions: FRET peptide phosphorylation, 140 μM ATP
Method: The inhibitor potency of compounds of the invention was measured in an enzyme assay that measures peptide phosphorylation using FRET measurements to detect product formation. Inhibitors were serially diluted in DMSO and a volume of 0.5 μL was transferred to the wells of a 384-well plate. A 10 μL volume of FGFR3 enzyme (Millipore) diluted in assay buffer (50 mM HEPES, 10 mM MgCl2, 1 mM EGTA, 0.01% Tween-20, 5 mM DTT, pH 7.5) was added to the plate and pre-incubated for 5-10 minutes. Appropriate controls (enzyme blank and enzyme with no inhibitor) were included on the plate. […] The plate was incubated at 25° C. for 1 hr. […] The plate was allowed to equilibrate for ˜1 hr before scanning the wells on a PheraStar plate reader.
GraphPad prism3 was used to analyze the data. The IC50 values were derived by fitting the data to the equation for a sigmoidal dose-response with a variable slope. Y=Bottom+(Top−Bottom)/(1+10^((Log IC50−X)*HillSlope)) where X is the logarithm of concentration and Y is the response.

Chain of FGFR3 enzyme (Millipore) (P22607 23-806): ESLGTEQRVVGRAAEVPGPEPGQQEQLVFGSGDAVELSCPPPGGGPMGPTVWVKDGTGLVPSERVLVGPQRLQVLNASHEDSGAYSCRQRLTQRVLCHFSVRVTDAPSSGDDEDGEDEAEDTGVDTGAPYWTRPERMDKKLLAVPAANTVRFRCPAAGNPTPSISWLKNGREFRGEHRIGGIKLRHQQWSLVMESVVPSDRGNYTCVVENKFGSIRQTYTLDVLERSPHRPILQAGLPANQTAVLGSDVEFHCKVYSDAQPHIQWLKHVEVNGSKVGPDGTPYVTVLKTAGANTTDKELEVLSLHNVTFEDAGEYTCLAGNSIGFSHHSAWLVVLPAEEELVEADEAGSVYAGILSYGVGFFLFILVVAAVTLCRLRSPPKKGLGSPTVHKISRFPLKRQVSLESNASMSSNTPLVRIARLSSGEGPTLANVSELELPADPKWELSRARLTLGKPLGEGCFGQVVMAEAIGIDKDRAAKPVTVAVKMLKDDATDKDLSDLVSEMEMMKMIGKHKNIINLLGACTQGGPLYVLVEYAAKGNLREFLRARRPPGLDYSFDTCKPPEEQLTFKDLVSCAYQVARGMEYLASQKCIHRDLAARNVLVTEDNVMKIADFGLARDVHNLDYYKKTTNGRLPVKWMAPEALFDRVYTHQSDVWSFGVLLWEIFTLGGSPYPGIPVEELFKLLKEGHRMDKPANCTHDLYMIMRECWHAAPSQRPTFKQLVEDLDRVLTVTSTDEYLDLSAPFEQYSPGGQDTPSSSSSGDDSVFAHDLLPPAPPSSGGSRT

IC50, < 10 nM:
CC(C(=O)N1CC[C@H](O)C1)c1ccc(-c2cnn3c(-c4cccc(NC(=O)NCC(F)(F)F)c4)cnc3c2)cc1 (stereo partly drawn) [Example 101, N-{3-[7-(4-{2-[(3S)-3-Hydroxypyrrolidin-1-yl]-1-methyl-2-oxoethyl}phenyl)imidazo[1,2-b]pyridazin-3-yl]phenyl}-N′-(2,2,2-trifluoroethyl)urea]
O=C(NCC(F)(F)F)Nc1cccc(-n2cnc3cc(-c4ccc(C(=O)NCc5cccnc5)cc4)ccc32)c1 [Example 12, N-(Pyridin-3-ylmethyl)-4-{1-[3-({[(2,2,2-trifluoroethyl)amino]carbonyl}amino)phenyl]-1H-benzimidazol-5-yl}benzamide]
CN(C)CC(=O)N1CC(CC#N)(n2cc(-c3cnn4c(-c5cccc(NC(=O)NCC(F)(F)F)c5)cnc4c3)cn2)C1 [Example 76, N-{3-[7-(1-{3-(Cyanomethyl)-1-[(dimethylamino)acetyl]azetidin-3-yl}-1H-pyrazol-4-yl)imidazo[1,2-b]pyridazin-3-yl]phenyl}-N′-(2,2,2-trifluoroethyl)urea]
COC1CCN(C(=O)C(C)n2cc(-c3cnn4c(-c5cccc(NC(=O)NCC(F)(F)F)c5)cnc4c3)cn2)CC1 (centres unmarked) [Example 69, N-[3-(7-{1-[2-(4-Methoxypiperidin-1-yl)-1-methyl-2-oxoethyl]-1H-pyrazol-4-yl}imidazo[1,2-b]pyridazin-3-yl)phenyl]-N′-(2,2,2-trifluoroethyl)urea]
CC(C(=O)N(C)C)c1ccc(-c2cnn3c(-c4cccc(NC(=O)NCC(F)(F)F)c4)cnc3c2)cc1 (centres unmarked) [Example 99, N,N-Dimethyl-2-(4-{3-[3-({[(2,2,2-trifluoroethyl)amino]carbonyl}amino)phenyl]imidazo[1,2-b]pyridazin-7-yl}phenyl)propanamide]
CC(C(=O)N1CCC(C#N)C1)n1cc(-c2cnn3c(-c4cccc(NC(=O)NCC(F)(F)F)c4)cnc3c2)cn1 (centres unmarked) [Example 67, N-[3-(7-{1-[2-(3-Cyanopyrrolidin-1-yl)-1-methyl-2-oxoethyl]-1H-pyrazol-4-yl}imidazo[1,2-b]pyridazin-3-yl)phenyl]-N′-(2,2,2-trifluoroethyl)urea]
O=C(NCC(F)(F)F)Nc1cccc(-n2cnc3cc(-c4ccc(C(=O)NCC5CCCO5)cc4)ccc32)c1 (centres unmarked) [Example 8, N-(Tetrahydrofuran-2-ylmethyl)-4-{1-[3-({[(2,2,2-trifluoroethyl)amino]carbonyl}amino)phenyl]-1H-benzimidazol-5-yl}benzamide]
CC(C(=O)N1CCC(C#N)C1)c1ccc(-c2ccc3c(c2)ncn3-c2cccc(NC(=O)NCC(F)(F)F)c2)cc1 (centres unmarked) [Example 19, N-[3-(5-{4-[2-(3-Cyanopyrrolidin-1-yl)-1-methyl-2-oxoethyl]phenyl}-1H-benzimidazol-1-yl)phenyl]-N′-(2,2,2-trifluoroethyl)urea]
Cn1ccc(S(=O)(=O)N2CCC(n3cc(-c4cnn5c(-c6cccc(NC(=O)NCC(F)(F)F)c6)cnc5c4)cn3)CC2)n1 [Example 31, N-{3-[7-(1-{1-[(1-methyl-1H-pyrazol-3-yl)sulfonyl]piperidin-4-yl}-1H-pyrazol-4-yl)imidazo[1,2-b]pyridazin-3-yl]phenyl}-N′-(2,2,2-trifluoroethyl)urea]
Cn1cc(C(=O)N2CCC(n3cc(-c4ccc5c(c4)ncn5-c4cccc(NC(=O)NCC(F)(F)F)c4)cn3)CC2)cn1 [Example 23, N-{3-[5-(1-{1-[(1-Methyl-1H-pyrazol-4-yl)carbonyl]piperidin-4-yl}-1H-pyrazol-4-yl)-1H-benzimidazol-1-yl]phenyl}-N′-(2,2,2-trifluoroethyl)urea]
CC(C(=O)N1CCOCC1)c1ccc(-c2cnn3c(-c4cccc(NC(=O)NCC(F)(F)F)c4)cnc3c2)cc1 (centres unmarked) [Example 105, N-(3-{7-[4-(1-Methyl-2-morpholin-4-yl-2-oxoethyl)phenyl]imidazo[1,2-b]pyridazin-3-yl}phenyl)-N′-(2,2,2-trifluoroethyl)urea]
O=C(NCC(F)(F)F)Nc1cccc(-n2cnc3cc(-c4cnn(C5CCN(C(=O)CC6CC6)CC5)c4)ccc32)c1 [Example 27, N-[3-(5-{1-[1-(Cyclopropylacetyl)piperidin-4-yl]-1H-pyrazol-4-yl}-1H-benzimidazol-1-yl)phenyl]-N′-(2,2,2-trifluoroethyl)urea]
COC1CCN(C(=O)C(C)n2cc(-c3cnn4c(-c5cccc(NC(=O)NCC(F)(F)F)c5)cnc4c3)cn2)C1 (centres unmarked) [Example 68, N-[3-(7-{1-[2-(3-Methoxypyrrolidin-1-yl)-1-methyl-2-oxoethyl]-1H-pyrazol-4-yl}imidazo[1,2-b]pyridazin-3-yl)phenyl]-N′-(2,2,2-trifluoroethyl)urea]
Cn1ccnc1CNC(=O)c1cccc(-c2ccc3c(c2)ncn3-c2cccc(NC(=O)NCC(F)(F)F)c2)c1 [Example 6, N-[(1-Methyl-1H-imidazol-2-yl)methyl]-3-{1-[3-({[(2,2,2-trifluoroethyl)amino]carbonyl}amino)phenyl]-1H-benzimidazol-5-yl}benzamide]
CC(C(=O)N1CC(O)C1)c1ccc(-c2cnn3c(-c4cccc(NC(=O)NCC(F)(F)F)c4)cnc3c2)cc1 (centres unmarked) [Example 104, N-[3-(7-{4-[2-(3-Hydroxyazetidin-1-yl)-1-methyl-2-oxoethyl]phenyl}imidazo[1,2-b]pyridazin-3-yl)phenyl]-N′-(2,2,2-trifluoroethyl)urea]
CC(C(=O)NC1CCN(C)CC1)n1cc(-c2cnn3c(-c4cccc(NC(=O)NCC(F)(F)F)c4)cnc3c2)cn1 (centres unmarked) [Example 71, N-(1-Methylpiperidin-4-yl)-2-(4-{3-[3-({[(2,2,2-trifluoroethyl)amino]carbonyl}amino)phenyl]imidazo[1,2-b]pyridazin-7-yl}-1H-pyrazol-1-yl)propanamide]
CC(C(=O)NCCN1CCOCC1)c1ccc(-c2cnn3c(-c4cccc(NC(=O)NCC(F)(F)F)c4)cnc3c2)cc1 (centres unmarked) [Example 107, N-(2-Morpholin-4-ylethyl)-2-(4-{3-[3-({[(2,2,2-trifluoroethyl)amino]carbonyl}amino)phenyl]imidazo[1,2-b]pyridazin-7-yl}phenyl)propanamide]
O=C(NCC(F)(F)F)Nc1cccc(-c2cnc3cc(-c4cnn(C5CCN(C(=O)N6CCOCC6)CC5)c4)cnn23)c1 [Example 37, N-[3-(7-{1-[1-(morpholin-4-ylcarbonyl)piperidin-4-yl]-1H-pyrazol-4-yl}imidazo[1,2-b]pyridazin-3-yl)phenyl]-N′-(2,2,2-trifluoroethyl)urea]
N#CCC(n1cc(-c2ccc3c(c2)ncn3-c2cccc(NC(=O)NCC(F)(F)F)c2)cn1)C(F)(F)F (centres unmarked) [Example 22, N-[3-(5-{1-[1-(Cyanomethyl)-2,2,2-trifluoroethyl]-1H-pyrazol-4-yl}-1H-benzimidazol-1-yl)phenyl]-N′-(2,2,2-trifluoroethyl)urea]
O=C(NCC(F)(F)F)Nc1cccc(-c2cnc3cc(-c4cnn(C5CCN(C(=O)Nc6cccnc6)CC5)c4)cnn23)c1 [Example 38, N-Pyridin-3-yl-4-(4-{3-[3-({[(2,2,2-trifluoroethyl)amino]carbonyl}amino)phenyl]imidazo[1,2-b]pyridazin-7-yl}-1H-pyrazol-1-yl)piperidine-1-carboxamide]
